Test results as given in patent US10100331B2, “Reagent for gene-drug therapeutics” (Agency for Science, Technology and Research, priority 2012, dated 2018).

Experiments:
HDAC3 = HDAC3 (Homo sapiens, UniProt O15379); conditions: Targeted HDAC/Sirtuin: 3; cited from earlier work
HDAC8 = target: T1, HDAC8 (Homo sapiens, UniProt Q9BY41); conditions: Targeted HDAC/Sirtuin: 8; cited from earlier work
T1 sequence (Q9BY41 1-377): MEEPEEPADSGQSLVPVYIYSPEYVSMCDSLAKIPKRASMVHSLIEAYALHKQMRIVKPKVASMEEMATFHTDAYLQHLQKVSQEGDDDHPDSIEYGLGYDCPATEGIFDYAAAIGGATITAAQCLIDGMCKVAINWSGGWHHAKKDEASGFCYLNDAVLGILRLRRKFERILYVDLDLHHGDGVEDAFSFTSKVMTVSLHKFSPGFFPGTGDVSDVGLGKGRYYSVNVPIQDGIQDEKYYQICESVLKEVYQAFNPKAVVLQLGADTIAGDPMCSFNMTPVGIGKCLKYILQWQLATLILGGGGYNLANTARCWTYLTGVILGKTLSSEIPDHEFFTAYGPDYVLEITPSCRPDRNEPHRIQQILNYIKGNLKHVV

HDAC6 = target: T2, HDAC6 (Homo sapiens, UniProt Q9UBN7); conditions: Targeted HDAC/Sirtuin: 6; cited from earlier work
T2 sequence (Q9UBN7 1-1215): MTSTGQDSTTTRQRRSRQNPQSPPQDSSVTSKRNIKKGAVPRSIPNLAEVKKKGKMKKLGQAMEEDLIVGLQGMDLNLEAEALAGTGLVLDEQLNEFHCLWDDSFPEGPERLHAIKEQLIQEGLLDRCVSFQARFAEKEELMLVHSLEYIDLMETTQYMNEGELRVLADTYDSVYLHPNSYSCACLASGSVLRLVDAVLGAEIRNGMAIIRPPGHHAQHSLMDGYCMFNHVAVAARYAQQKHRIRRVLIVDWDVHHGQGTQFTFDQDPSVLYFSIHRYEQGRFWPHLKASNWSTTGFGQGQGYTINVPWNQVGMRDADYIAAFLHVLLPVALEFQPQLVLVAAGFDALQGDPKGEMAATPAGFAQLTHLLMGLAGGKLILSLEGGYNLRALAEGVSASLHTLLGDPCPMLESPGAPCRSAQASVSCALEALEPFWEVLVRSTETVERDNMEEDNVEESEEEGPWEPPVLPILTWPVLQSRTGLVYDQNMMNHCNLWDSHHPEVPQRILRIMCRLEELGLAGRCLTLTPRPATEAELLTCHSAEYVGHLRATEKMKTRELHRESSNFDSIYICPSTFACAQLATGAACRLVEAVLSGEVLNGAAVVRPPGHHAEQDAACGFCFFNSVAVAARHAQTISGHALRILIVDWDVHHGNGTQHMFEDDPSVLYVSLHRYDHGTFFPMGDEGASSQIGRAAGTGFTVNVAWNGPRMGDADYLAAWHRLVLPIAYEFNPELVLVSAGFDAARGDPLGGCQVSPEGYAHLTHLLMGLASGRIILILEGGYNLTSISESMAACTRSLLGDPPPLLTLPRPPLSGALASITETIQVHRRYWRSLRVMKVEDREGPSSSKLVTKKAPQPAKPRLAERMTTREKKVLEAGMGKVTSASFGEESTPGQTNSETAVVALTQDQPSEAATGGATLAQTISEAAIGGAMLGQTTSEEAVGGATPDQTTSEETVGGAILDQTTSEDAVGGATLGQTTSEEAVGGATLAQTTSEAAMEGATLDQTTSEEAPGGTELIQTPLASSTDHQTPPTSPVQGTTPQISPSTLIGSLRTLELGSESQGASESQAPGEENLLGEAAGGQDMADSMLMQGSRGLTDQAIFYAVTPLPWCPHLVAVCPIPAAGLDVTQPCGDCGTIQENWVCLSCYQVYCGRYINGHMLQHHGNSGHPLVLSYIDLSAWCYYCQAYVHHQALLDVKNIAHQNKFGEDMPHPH

Neuro2A cells = test: Transfection of Neuro2A cells with PKC inhibitor; type: cell-based; conditions: 2 μM, 45 min prior and after transfection; LPEI/pDNA N/P=20; 24 h
Experimental: Neuro2A cells were treated with GÖ6983 (2 μM) for 45 min prior transfection. Transfection mixture (LPEI/pDNA at N/P=20) was replaced with DMEM containing 0.5% FBS and GÖ6983 (2 μM). Representative images (acquired 24 h post transfection) were shown.

HDAC1 = HDAC1 (Homo sapiens, UniProt Q13547); conditions: Targeted HDAC/Sirtuin: 1; cited from earlier work
HDAC2 = HDAC2 (Homo sapiens, UniProt Q92769); conditions: Targeted HDAC/Sirtuin: 2; cited from earlier work
Chain of HDAC2 (Q92769 whole entry): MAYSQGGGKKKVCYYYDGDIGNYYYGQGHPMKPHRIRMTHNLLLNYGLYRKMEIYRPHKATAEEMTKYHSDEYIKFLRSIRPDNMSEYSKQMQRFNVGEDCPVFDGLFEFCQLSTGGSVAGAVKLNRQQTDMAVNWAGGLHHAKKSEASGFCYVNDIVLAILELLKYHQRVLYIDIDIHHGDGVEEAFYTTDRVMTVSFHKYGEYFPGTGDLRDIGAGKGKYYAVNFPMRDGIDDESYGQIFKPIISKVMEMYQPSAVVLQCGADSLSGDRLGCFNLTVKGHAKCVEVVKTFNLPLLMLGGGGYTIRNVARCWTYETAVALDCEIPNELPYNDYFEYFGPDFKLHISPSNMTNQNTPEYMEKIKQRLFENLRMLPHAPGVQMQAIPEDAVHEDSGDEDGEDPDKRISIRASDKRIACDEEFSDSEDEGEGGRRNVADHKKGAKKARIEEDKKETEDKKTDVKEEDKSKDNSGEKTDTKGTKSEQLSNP

Chain of HDAC3 (O15379 whole entry): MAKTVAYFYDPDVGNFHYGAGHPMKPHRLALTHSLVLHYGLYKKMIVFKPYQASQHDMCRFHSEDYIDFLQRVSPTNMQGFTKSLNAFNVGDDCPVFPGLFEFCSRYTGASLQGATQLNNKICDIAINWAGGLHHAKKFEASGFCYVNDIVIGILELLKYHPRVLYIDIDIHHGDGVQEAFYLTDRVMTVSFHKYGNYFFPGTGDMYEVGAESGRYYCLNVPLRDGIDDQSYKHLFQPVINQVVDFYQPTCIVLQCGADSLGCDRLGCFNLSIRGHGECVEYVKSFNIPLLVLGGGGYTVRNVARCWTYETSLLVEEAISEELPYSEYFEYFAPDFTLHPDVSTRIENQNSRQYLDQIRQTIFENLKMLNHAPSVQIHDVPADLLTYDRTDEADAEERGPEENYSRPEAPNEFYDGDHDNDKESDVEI
Chain of HDAC3 (Q9Y618 395-489 partner limits assumed): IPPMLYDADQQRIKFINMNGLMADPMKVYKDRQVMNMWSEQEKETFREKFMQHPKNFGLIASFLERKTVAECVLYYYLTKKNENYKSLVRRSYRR
Chain of HDAC1 (Q13547 whole entry, species assumed): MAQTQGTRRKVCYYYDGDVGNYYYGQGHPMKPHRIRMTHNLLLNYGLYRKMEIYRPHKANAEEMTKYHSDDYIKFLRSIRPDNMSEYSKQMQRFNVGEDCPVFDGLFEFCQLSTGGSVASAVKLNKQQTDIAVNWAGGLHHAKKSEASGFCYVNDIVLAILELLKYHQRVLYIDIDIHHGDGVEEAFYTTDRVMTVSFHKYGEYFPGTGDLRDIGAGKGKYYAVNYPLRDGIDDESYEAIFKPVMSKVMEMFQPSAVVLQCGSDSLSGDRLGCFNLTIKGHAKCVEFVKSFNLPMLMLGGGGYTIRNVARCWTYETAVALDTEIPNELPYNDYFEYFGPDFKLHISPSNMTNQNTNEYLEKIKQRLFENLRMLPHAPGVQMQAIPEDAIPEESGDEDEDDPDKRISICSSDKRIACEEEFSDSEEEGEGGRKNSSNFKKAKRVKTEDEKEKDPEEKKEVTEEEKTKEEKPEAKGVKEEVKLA

| Compound | IC50 (HDAC3) [µM] | IC50 (HDAC8) [µM] | IC50 (HDAC6) [µM] | transfection (Neuro2A cells) | IC50 (HDAC1) [µM] | IC50 (HDAC2) [µM] |
| --- | --- | --- | --- | --- | --- | --- |
| CCCCOc1ccc(CC(=O)NO)cc1 [Bufexamac] | 341 | 235 | 10.7 |  |  |  |
| COc1ccc2c(c1)c(C1=C(c3c[nH]c4ccccc34)C(=O)NC1=O)cn2CCCN(C)C [GÖ6983] |  |  |  | substantially reduced transfection |  |  |
| Nc1ccccc1NC(=O)CCCCCCC(=O)Nc1ccccc1 [BML-210] | 2.62 |  |  |  | 15 | 10.9 |
